Source: publication PMC3610893, “The CouPSTU and TarPQM Transporters in Rhodopseudomonas palustris: Redundant, Promiscuous Uptake Systems for Lignin-Derived Aromatic Substrates” (PLoS ONE, 2013)
Values joined by “and” are separate entries in the source; they are usually repeats but may differ in a detail not shown here. Identical values can stand only once.

Legend:
[1] = target: T1, CouP (RPA1789) periplasmic binding-protein (Rhodopseudomonas palustris, UniProt Q6N8W4); assay: Intrinsic tryptophan fluorescence spectroscopy / ligand titrations with CouP (RPA1789); settings: for Quench of intrinsic tryptophan fluorescence of CouP (RPA1789): 0.2 µM ligand added to 0.2 µM protein (equimolar), excitation 280 nm; for K d with CouP that was not urea treated, relative to refolded protein: fluorescence titrations, CouP not urea treated (endogenous ligand not removed), fold higher
T1 sequence (Q6N8W4 27-385): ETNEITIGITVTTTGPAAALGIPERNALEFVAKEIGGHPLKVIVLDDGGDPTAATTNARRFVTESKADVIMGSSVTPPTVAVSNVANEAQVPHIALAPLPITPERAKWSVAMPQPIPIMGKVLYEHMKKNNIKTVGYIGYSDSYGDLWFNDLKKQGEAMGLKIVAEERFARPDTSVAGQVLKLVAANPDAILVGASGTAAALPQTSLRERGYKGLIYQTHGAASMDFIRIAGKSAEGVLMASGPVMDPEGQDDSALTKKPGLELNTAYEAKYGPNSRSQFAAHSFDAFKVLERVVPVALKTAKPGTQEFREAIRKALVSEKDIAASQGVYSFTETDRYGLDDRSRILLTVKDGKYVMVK
Procedure: (§1) Pure protein was unfolded by dialysis against 1 L of 6 M urea for 16 hours at 4°C. Refolding was effected by dialysis against 2 L of refolding buffer (50 mM Tris-HCl pH 7.2 plus 100 mM NaCl) for 8 hours, the buffer being changed every 2 hours with a final overnight dialysis. Once removed from the dialysis tubing, protein was centrifuged (13,000×g, 10 mins, 4°C) to remove any precipitated misfolded protein.
(§2) Changes in the UV fluorescence of intrinsic tryptophan residues in RPA1782 and RPA1789 were measured using a Cary Eclipse fluorimeter (Varian Ltd, UK) in 10 mM Tris-HCl buffer pH 7.4 at 30°C in a 3 ml volume. Excitation of samples was at 280 nm (5 nm slit width) and emission was recorded at 300–400 nm (20 nm slit width). Ligand titrations were performed with 0.2 µM protein with λex 280 nm λem 340 nm using 5 nm excitation and 20 nm emission slit widths respectively. Except where indicated, data from three independent titrations was used to calculate K d values, by fitting to the quadratic equation for tight binding as previously described.

[2] = target: T2, TarP (RPA1782) periplasmic binding-protein (Rhodopseudomonas palustris, UniProt Q6N8X0); assay: Intrinsic tryptophan fluorescence spectroscopy / ligand titrations with TarP (RPA1782); settings: for Quench of intrinsic tryptophan fluorescence of TarP (RPA1782): equimolar protein and ligand (0.2 µM), excitation 280 nm
T2 sequence (Q6N8X0 20-336): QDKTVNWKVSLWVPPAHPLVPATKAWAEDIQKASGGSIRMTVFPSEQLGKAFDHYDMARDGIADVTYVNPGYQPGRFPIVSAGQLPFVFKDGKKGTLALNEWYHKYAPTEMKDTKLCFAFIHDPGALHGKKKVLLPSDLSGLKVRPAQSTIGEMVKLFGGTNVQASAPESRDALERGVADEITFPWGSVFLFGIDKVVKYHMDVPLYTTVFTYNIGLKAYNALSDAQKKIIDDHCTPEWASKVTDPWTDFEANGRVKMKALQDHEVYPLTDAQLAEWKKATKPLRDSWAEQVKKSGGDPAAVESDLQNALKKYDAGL
Procedure: as §1, §2

CouP (RPA1789) = target: T3, CouP (RPA1789) (Rhodopseudomonas palustris, UniProt Q6N8W4); assay: Isothermal titration calorimetry (ITC) with RPA1789; format: binding
T3 sequence (Q6N8W4 27-385): T1 sequence (Q6N8W4 27-385)
Procedure: ITC experiments were carried out using a VP-ITC calorimeter (Microcal, Inc., UK). Ligand stock solutions for ITC experiments were made up in aliquots of the final refolding buffer that RPA1789 was dialysed against (50 mM Tris-HCl pH 7.2 plus 100 mM NaCl) and all reactions used the same buffer. The reaction cell contained 1.8 ml of 50 µM protein in refolding buffer. Ligand titrations were carried out at 20°C (except caffeate which was carried out at 25°C) by the injection of 20×15 µl aliquots of 400 µM ligand, from a 300 µl syringe, for a duration of 35 seconds at 7 minute intervals. After taking into account the baseline and any heats of dilution by the ligand, all titrations were integrated using the ORIGIN software programme associated with the calorimeter then exported to in-house numerical routines for data fitting to the Weissman isotherm.

[3] = target: T1, CouP (RPA1789) periplasmic binding-protein; assay: Intrinsic tryptophan fluorescence spectroscopy / ligand titrations with CouP (RPA1789); settings: CouP not urea treated (endogenous ligand not removed)
RPA1789 = target: RPA1789; set-up: method as in PMID 22577139; settings: read-out: K d for RPA1789 by ITC (literature); cited from earlier work
[4] = ITC, 20°C, 50 µM protein, 50 mM Tris-HCl pH 7.2 plus 100 mM NaCl

Kd (CouP (RPA1789)) | n (ligand binding stoichiometry) (CouP (RPA1789); ITC, 25°C) | ΔH (binding enthalpy) (CouP (RPA1789); ITC, 25°C) | ΔHdil (heats of dilution of the ligands) (CouP (RPA1789); ITC, 25°C) | ΔS (binding entropy) (CouP (RPA1789); ITC, 25°C) | Structure (SMILES) | Quench of intrinsic tryptophan fluorescence of CouP (RPA1789) [1] | Binding to CouP (RPA1789) ([1]; fluorescence) | Binding to TarP (RPA1782), fluorescence screen ([2]; equimolar protein and ligand) | Kd [1] | K d with CouP that was not urea treated, relative to refolded protein [1] | Kd [2] | Quench of intrinsic tryptophan fluorescence of TarP (RPA1782) [2] | ΔH (binding enthalpy) (CouP (RPA1789); [4]) | Binding to CouP that was not urea treated [3] | n (ligand binding stoichiometry) (CouP (RPA1789); ITC, 20°C) | ΔHdil (heats of dilution of the ligands) (CouP (RPA1789); ITC, 20°C) | ΔS (binding entropy) (CouP (RPA1789); ITC, 20°C) | ΔHbind (less favourable enthalpy of binding) (CouP (RPA1789); ITC, CouP, compared with ligands bearing the 4-OH group) | Kd (RPA1789)
– | – | – | – | – | O=C(O)c1ccc(O)cc1 [4-hydroxybenzoate] | did not produce any fluorescence change | no evidence of binding | no evidence of binding | – | – | – | – | – | – | – | – | – | – | –
27 ± 0.07 nM | 0.776±0.005 | 1.78 ± 0.05 kcal/mol | -0.28 kcal/mol | 40 cal mol^−1 K^−1 | O=C(O)/C=C/c1ccc(O)c(O)c1 [Caffeate, (E)-3-(3,4-dihydroxyphenyl)-2-propenoic acid] | 25–50% | – | – | 2.4 ± 0.8 nM | 200-1,000 fold | 14 ± 7 nM | ~5% | negligible enthalpy of binding | – | – | – | – | – | –
– | – | – | – | – | O=C(O)/C=C/c1ccccc1 [Cinnamate, (E)-3-phenyl-2-propenoic acid] | 25–50% | – | – | 88 ± 8 nM | – | 50 nM and 33 nM | ~5% | 7.45 ± 0.08 kcal/mol | no evidence for cinnamate binding | 0.757±0.003 | -0.43 kcal/mol | 56 cal mol^−1 K^−1 | > 4 kcal/mol | –
– | – | – | – | – | O=C(O)/C=C/c1ccc(O)cc1 [Coumarate, (E)-3-(4-hydroxyphenyl)-2-propenoic acid] | ~30% and 25–50% | – | – | 2.6 ± 0.09 nM | 200-1,000 fold | 8 ± 5 nM | ~5% | 3.23 ± 0.03 kcal/mol | – | 0.993±0.003 | -0.26 kcal/mol | 46 cal mol^−1 K^−1 | – | 8600 nM
– | – | – | – | – | COc1cc(/C=C/C(=O)O)ccc1O [Ferulate, (E)-3-(4-hydroxy-3-methoxyphenyl)-2-propenoic acid] | 25–50% | – | – | 15 ± 6 nM | 200-1,000 fold | 15 ± 3 nM | ~5% | 3.18 ± 0.03 kcal/mol | – | 0.803±0.002 | -0.24 kcal/mol | 43 cal mol^−1 K^−1 | – | –
– | – | – | – | – | COc1cc(C=CC(=O)O)cc(OC)c1O [sinapate, 3-(4-hydroxy-3,5-dimethoxyphenyl)-2-propenoic acid] | ~5% | – | – | – | – | – | – | – | – | – | – | – | – | –
